Data as given in US12624027B2, “Salts and polymorphic forms of 6-chloro-7-(4-(4-chlorobenzyl)piperazin-1-yl)-2-(1,3-dimethyl-1H-pyrazol-4-yl)-3H-imidazo[4,5-b]pyridine” (ELLIPSES PHARMA LTD, priority 2020, dated 2026).

Columns and labels:
Aurora A = target: T1, Aurora A (Homo sapiens, UniProt O14965); details: cited from earlier work
T1 sequence (O14965 1-403): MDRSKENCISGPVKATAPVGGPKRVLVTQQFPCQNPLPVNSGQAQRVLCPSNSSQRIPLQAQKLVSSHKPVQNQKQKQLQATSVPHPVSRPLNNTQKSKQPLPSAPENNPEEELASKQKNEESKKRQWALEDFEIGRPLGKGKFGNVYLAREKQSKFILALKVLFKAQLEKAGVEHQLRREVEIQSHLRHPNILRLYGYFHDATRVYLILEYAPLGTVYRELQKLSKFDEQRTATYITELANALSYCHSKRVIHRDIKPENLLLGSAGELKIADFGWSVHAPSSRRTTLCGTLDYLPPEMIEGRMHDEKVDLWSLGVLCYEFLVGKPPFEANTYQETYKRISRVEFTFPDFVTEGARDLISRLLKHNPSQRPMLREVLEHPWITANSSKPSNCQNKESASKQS

Aurora B = Aurora B (Homo sapiens, UniProt Q96GD4); details: cited from earlier work
Sequence of Aurora B (Q96GD4 whole entry): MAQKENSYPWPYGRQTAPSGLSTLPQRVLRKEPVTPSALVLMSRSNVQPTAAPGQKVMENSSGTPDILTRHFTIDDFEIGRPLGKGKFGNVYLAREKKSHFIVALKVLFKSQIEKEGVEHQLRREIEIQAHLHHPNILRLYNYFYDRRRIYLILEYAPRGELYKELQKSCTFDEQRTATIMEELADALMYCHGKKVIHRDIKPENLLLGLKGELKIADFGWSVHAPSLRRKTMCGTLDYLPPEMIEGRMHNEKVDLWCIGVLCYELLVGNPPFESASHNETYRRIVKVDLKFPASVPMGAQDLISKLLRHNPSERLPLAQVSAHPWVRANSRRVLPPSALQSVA

hERG = hERG (Homo sapiens, UniProt Q12809); details: cited from earlier work
Sequence of hERG (Q12809 whole entry): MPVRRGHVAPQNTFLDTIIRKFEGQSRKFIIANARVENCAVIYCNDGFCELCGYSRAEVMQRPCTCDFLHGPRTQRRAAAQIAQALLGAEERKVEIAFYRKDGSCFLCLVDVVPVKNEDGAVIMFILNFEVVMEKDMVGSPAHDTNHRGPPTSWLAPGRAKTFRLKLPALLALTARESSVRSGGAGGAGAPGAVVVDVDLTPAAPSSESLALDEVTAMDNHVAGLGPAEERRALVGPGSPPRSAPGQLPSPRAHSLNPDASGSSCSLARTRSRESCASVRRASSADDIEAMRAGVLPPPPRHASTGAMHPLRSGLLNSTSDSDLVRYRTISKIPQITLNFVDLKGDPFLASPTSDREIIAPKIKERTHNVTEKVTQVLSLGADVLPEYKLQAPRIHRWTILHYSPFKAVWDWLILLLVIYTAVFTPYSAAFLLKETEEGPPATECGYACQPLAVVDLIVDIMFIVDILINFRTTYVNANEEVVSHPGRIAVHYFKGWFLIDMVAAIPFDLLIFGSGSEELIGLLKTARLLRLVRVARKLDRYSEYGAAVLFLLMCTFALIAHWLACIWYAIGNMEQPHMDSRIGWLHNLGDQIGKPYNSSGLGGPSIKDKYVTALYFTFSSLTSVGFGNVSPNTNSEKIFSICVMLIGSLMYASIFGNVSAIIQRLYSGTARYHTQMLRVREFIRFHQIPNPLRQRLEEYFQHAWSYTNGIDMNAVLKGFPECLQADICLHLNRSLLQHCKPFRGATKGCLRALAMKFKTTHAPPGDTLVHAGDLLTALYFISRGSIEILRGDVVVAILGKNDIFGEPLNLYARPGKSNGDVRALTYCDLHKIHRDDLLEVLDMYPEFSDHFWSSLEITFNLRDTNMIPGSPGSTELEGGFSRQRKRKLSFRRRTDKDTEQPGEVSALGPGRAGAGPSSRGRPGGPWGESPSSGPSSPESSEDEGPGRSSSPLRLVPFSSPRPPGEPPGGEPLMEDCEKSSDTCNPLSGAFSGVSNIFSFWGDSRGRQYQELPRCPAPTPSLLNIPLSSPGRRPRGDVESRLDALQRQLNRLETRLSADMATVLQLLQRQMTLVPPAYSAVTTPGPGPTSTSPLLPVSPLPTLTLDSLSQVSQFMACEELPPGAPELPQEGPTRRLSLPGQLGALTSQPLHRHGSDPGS

[1] = Thermodynamic solubility assessment in biological media (FaSSIF, FeSSIF, FaSSGF), HPLC of mother liquors; assay type: physicochemical; details: listed as Compound A free base
Procedure: The thermodynamic solubility of Compound A free base, Compound A fumarate Form 1 and Compound A hemi-fumarate Form 3 was assessed in 3 biological media: Fasted State Simulated Intestinal Fluid (FaSSIF); Fed State Simulated Intestinal Fluid (FeSSIF) and Fasted State Simulated Gastric Fluid (FaSSGF).
The following procedure was carried out. Approximately 10 mg of material was weighed into 3×1.5 mL glass vials. 0.02 mL aliquots of appropriate buffer were added to each vial until a final concentration of 10 mg/mL was obtained. The samples were then filtered via centrifugation and the mother liquors analyzed by HPLC.

Aurora C = target: T2, Aurora C (Homo sapiens, UniProt Q9UQB9); details: cited from earlier work
T2 sequence (Q9UQB9 1-309): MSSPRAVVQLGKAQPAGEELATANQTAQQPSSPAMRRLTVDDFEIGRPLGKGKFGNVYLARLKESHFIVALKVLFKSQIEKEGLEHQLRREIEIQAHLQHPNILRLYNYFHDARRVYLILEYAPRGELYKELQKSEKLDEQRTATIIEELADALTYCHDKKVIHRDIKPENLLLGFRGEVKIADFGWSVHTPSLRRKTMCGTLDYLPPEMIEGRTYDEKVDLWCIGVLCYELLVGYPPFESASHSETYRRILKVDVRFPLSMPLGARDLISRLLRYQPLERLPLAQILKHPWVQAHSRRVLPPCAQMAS

cytochrome P450 = details: cited from earlier work
FLT3 = target: T3, FLT3 (Homo sapiens, UniProt P36888); details: cited from earlier work
T3 sequence (P36888 27-993): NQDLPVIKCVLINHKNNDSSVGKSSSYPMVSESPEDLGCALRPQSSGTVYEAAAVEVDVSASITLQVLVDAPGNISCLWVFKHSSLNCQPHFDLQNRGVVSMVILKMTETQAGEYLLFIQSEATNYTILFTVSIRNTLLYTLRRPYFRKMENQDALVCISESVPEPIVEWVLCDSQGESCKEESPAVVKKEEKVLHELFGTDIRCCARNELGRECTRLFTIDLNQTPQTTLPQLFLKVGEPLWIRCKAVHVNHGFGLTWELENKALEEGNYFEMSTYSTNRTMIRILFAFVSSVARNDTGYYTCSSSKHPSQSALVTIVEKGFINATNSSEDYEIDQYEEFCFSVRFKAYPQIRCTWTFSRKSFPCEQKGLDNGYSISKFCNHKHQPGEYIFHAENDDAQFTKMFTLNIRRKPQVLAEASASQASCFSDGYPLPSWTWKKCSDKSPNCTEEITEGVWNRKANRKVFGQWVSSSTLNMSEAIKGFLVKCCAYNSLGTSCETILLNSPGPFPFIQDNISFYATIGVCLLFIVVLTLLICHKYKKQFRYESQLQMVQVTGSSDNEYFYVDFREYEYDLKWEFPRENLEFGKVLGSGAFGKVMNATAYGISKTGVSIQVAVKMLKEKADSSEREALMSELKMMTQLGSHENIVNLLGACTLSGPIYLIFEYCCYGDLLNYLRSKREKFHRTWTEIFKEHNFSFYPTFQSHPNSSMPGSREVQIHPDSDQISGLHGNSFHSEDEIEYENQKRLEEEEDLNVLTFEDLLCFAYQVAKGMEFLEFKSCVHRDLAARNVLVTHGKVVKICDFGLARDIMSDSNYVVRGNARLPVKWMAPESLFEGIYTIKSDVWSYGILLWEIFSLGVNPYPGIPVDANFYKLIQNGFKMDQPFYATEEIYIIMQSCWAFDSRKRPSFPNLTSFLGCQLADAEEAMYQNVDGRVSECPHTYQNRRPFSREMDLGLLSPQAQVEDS

SMILES: Cc1nn(C)cc1-c1nc2c(N3CCN(Cc4ccc(Cl)cc4)CC3)c(Cl)cnc2[nH]1 [Compound A, 6-chloro-7-(4-(4-chlorobenzyl)piperazin-1-yl)-2-(1,3-dimethyl-1H-pyrazol-4-yl)-3H-imidazo[4,5-b]pyridine]
- activity against Aurora A kinase (Aurora A): high activity
- activity against Aurora B kinase (Aurora B): high activity
- interaction with hERG (hERG): minimal interaction
- Concentration (thermodynamic solubility) ([1]; FaSSGF pH 1.6): 1500 µg/mL
- Concentration (thermodynamic solubility) ([1]; FaSSIF pH 6.5): <100 µg/mL
- Concentration (thermodynamic solubility) ([1]; FeSSIF pH 5.0): <100 µg/mL
- activity against Aurora C kinase (Aurora C): high activity
- interaction with cytochrome P450 activity (cytochrome P450): minimal interaction
- activity against FLT3 kinase (FLT3): high activity
